Experimental data taken from patent publication US20210230300A1, “INHIBITORS OF SHP2” (Bayer Aktiengesellschaft, priority 2018, published 2021).
“Also recorded” adds a separate entry of the source. Marks after values point to notes of the source that are not given here. Each block holds one compound with its values, some of them ahead of it.

Columns and labels:
log D = format: physicochemical
[1] = system: Mouse 10 day unilateral ureter obstruction (UUO) model; assay: Mouse 10 day UUO model, renal mRNA expression of fibrotic markers (TaqMan real time PCR); format: in vivo; conditions: for Col1α1 mRNA expression, percentage vs. placebo / Col3α1 mRNA expression, percentage vs. placebo / Col4α1 mRNA expression, percentage vs. placebo / αSMA mRNA expression, percentage vs. placebo: kidney
Protocol: (§1) The study was performed on male C57/B16J mice (age: 7-8 weeks) that were obtained from Charles River. Mice were anesthetized with continuous inhaled isoflurane, and the left ureter was exposed via a mid-abdominal incision. The mid-ureter was obstructed by two point ligation with silk sutures. The SHAM-operated mouse (n=6) underwent the same procedure except for the obstruction of the left ureter.
(§2) The mice were randomized into four groups (n=10 each group): UUO plus vehicle (10% EtOH/40% PEG/50% water), UUO plus 3 [mg/kg] […] SHP099. Mice were dosed bidaily with vehicle and SHP099. The forth group of mice with UUO was treated once daily with Tivozanib (technical control). At ten days after surgery, mice were euthanized, and kidneys were collected and divided in two parts.
(§3) One part was snap-frozen in liquid nitrogen for RNA analysis. The other part was stored in Davidson's fixative for the preparation of histological sections. Total RNA was isolated from parts of harvested kidneys. Kidney tissue was homogenized and RNA was obtained and transcribed to cDNA. Using TaqMan real time PCR renal mRNA expression of fibrotic markers was analyzed in kidney tissues. For the assessment of fibrosis on the protein level paraffin tissue sections were stained with alpha-smooth muscle actin (αSMA) and Sirius Red/Fast Green Collagen Stainings using standard procedures.
(§4) All data are expressed as means±S.D. Differences between groups were analyzed by one-way ANOVA with Dunnett's corrections for multiple comparisons. Statistical significance was defined as p<0.05.
(§5) After 10 days, the weight of the kidneys was measured, and RNA-markers αSMA, Col1α1, Col3α1, Col4α1 were measured with RT PCR. Further, histological measurements of αSMA (Alpha smooth muscle actin) and Collagen (SR/FG) were carried out.

[2] = system: Mouse 3 day unilateral ureter obstruction (UUO) model; assay: Mouse 3 day unilateral ureter obstruction (UUO) model, macrophage infiltration by flow cytometry (CD45, F4/80); format: in vivo; conditions: 3 day UUO
Protocol: As a placebo, a solution without active ingredient was used (group 2), and a sham operated group with unligated kidney was used as a positive control (group 1)
The infiltration of macrophages in response to the renal injury was measured in a flow cytometry assay with detection antibodies binding to the pan-leukocyte marker CD45, as well as to the macrophage-specific antigen, F4/80.

[3] = system: mouse renal ischemia reperfusion injury (IRI) model; assay: Mouse uninephrectomy/renal ischemia reperfusion injury (uIRI) model; format: in vivo; conditions: 30 [mg/kg] SHP099 p.o. BID
Protocol: Experiments indicative for acute kidney diseases were carried out in a uninephrectomy/renal ischemia reperfusion injury (uIRI) model (example 3), as e.g. disclosed in Skrypnyk et al (2013).
In a mouse renal ischemia reperfusion injury (IRI) model, uninephrectomy (UNX) with unilateral renal ischemia (RI), was carried out. Therein, one kidney is removed and the remaining kidney undergoes ischemia/reprefusion via renal artery claming, Animals were then treated according to the following groups: […]

[4] = system: Mouse 10 day unilateral ureter obstruction (UUO) model; assay: Mouse 10 day UUO model, histology (αSMA and Sirius Red/Fast Green collagen staining); format: in vivo
Protocol: as §1, §2, §3
Quantitative measurements of alpha-smooth muscle actin (αSMA)-positive as well as Sirius Red (Collagen) positive areas within the kidneys were obtained by computer image analysis using the Axio Scan Z1 (Zeiss) microscope and the Zen software.
as §4, §5

[5] = SHP099 3 and 30 mg/kg bidaily, result in words
[6] = Tivozanib once daily (technical control)

- log D (log D): 1.7
Compound: CC1(N)CCN(c2cnc(-c3cccc(Cl)c3Cl)c(N)n2)CC1 [SHP099]
- collagen RNA expression in kidney (Collagen 1a1, 3a1, 4a1) [1, 5]: strong and very significant reduction; also recorded: dose-dependent reduction
- αSMA RNA expression in kidney [1, 5]: strong and very significant reduction; also recorded: dose-dependent reduction
- Col1α1 mRNA expression, percentage vs. placebo ([1]; 3 [mg/kg] SHP099 bidaily): 77%
- Col3α1 mRNA expression, percentage vs. placebo ([1]; 3 [mg/kg] SHP099 bidaily): 82%
- Col4α1 mRNA expression, percentage vs. placebo ([1]; 3 [mg/kg] SHP099 bidaily): 85%
- αSMA mRNA expression, percentage vs. placebo ([1]; 3 [mg/kg] SHP099 bidaily): 81%
- Col1α1 mRNA expression, percentage vs. placebo ([1]; 30 [mg/kg] SHP099 bidaily): 51%
- Col3α1 mRNA expression, percentage vs. placebo ([1]; 30 [mg/kg] SHP099 bidaily): 54%
- Col4α1 mRNA expression, percentage vs. placebo ([1]; 30 [mg/kg] SHP099 bidaily): 56%
- αSMA mRNA expression, percentage vs. placebo ([1]; 30 [mg/kg] SHP099 bidaily): 47%
- macrophage infiltration ([2]; 100 mg/kg SHP099 BID p.o.): significant, dose-dependent reduction
- podocyte marker NHPS1 expression [3]: reproducible and strong effects
- serum creatinine [3]: robust reduction
- serum urea [3]: mild reduction
- αSMA-positive area within the obstructed kidney ([4]; 3 [mg/kg] SHP099 bidaily): significant reduction
- collagen deposition in kidneys ([4]; SHP099 treated, compared to untreated or Tivozanib treated mice, dose not stated): strong and significant reduction
- aSMA-positive area in kidneys ([4]; SHP099 treated, dose not stated): strong and significant reduction
- Collagen content (SR/FG staining) ([4]; both dosages of SHP099 (3 and 30 mg/kg bidaily)): dose dependently and significantly reduced

Compound: COc1cc2nccc(Oc3ccc(NC(=O)Nc4cc(C)on4)c(Cl)c3)c2cc1OC [Tivozanib]
- Col1α1 mRNA expression, percentage vs. placebo [1, 6]: 62%
- Col3α1 mRNA expression, percentage vs. placebo [1, 6]: 76%
- Col4α1 mRNA expression, percentage vs. placebo [1, 6]: 71%
- αSMA mRNA expression, percentage vs. placebo [1, 6]: 64* %
- macrophage infiltration ([2]; 3 mg/kg Tivozanib QD p.o., in comparison with SHP099): weaker effects
- Collagen content (SR/FG staining) [4, 6]: significantly reduced
- αSMA-positive area within the obstructed kidney [4, 6]: significantly reduced
